From US9346797B1, “2-amino 6-(difluoromethyl)-5,5-difluoro-6-phenyl-3,4,5,6-tetrahydropyridines as BACE1 inhibitors” (H. Lundbeck A/S, priority 2014, dated 2016)

Tests used:
Aβ40 = test: Assessment of Aβ levels in rat brain and plasma following BACE1 inhibition (Aβ40 ELISA); type: in vivo; settings: 3 hours post dose, vs vehicle
Description: Young adult Male Sprague Dawley rats of approximately 250 g weight were purchased from Charles River and received 0-30 mg/kg of vehicle (10% HP betaCD+1M MeSO4, pH 2.5) or test compounds (dissolved in vehicle) only by oral gavage (p.o). The compounds are dosed at a volume of 5 ml/kg. Cohorts of 5-10 animals were established for each treatment condition.
At T=180 minutes after initial dosing the animals were stunned and decapitated with a guillotine. Trunk-blood was sampled in EDTA coated tubes after decapitation of the animal. The blood was centrifuged at 2200 G at 4° C. for 15 minutes and the plasma was collected and frozen at −80° C. The blood was aliquoted for Aβ ELISA and DMPK analysis Immediately following sacrifice, the brain was extracted and split into 2 halves. The right hemibrains were snap frozen on dry ice and stored at −80° C. The left half was dissected; with the front forebrain taken for Aβ ELISA and the remainder used for DMPK analysis. These samples were also snap frozen on dry ice and stored at −80° C. until use for analysis.
The cortex samples were thawed slightly on wet ice before they were homogenized with a small volume dispersing instrument (T10 basic ULTRA-TURRAX®) which was set at speed 5 for approximately 5-7 sec. The tissue was processed in a 10 times volume of the weight, for example 100 mg of tissue was homogenized in 1000 μL of Homogenization buffer. Homogenization buffer: 50 ml Milli Q water+50 nM NaCl+0.2% Diethylamin (DEA)+1 tablet of Complete Protease inhibitor cocktail+1 nM 4-(2-aminoethyl) benzenesulfonyl fluoride hydrochloride irreversible serine protease inhibitor (AEBSF).
After homogenization 450 μL aliquots of the samples are collected into a 1.5 ml Eppendorf tube and placed on wet ice, 0.5% NP-40 (50 ul) was added to all samples and then they were incubated on ice for 30 min. After which all samples were sonicated using an Ultrasonic homogenizer with 20 kHz homogeneous sound (SONOPLUS HD2070, Bandelin Electronic) 10 pulse set at 12-13% power to extract all the Aβ species. The samples were then centrifuged (Ole Dich 157 MPRF Micro centrifuge) at 20000 G for 20 minutes at 4° C. After centrifugation 285 μL of the supernatant was pipetted into 600 μL microtubes tubes and neutralized with 15 μL of 1M Tris-HCL buffer.
WAKO 294-62501 Human/Rat Abeta amyloid (40) kit was used for all ELISA analyses. 30 μL plasma samples or 30 μL of the cortex supernatants generated as described above were placed in 600 μL microtubes tubes on wet ice. To this 30 μL of 8M Urea (AppliChem A1049, 9025) are added to generate a 2-fold dilution. Both plasma and cortex supernatants are incubated on ice for 30 min. Standard rows were prepared from the standard peptide stock provided in the kit and standard diluent containing 1.6M Urea (200 μL 8M Urea+800 μL of standard diluent) and 0.8M Urea (400 μL 8M Urea+3600 μL Standard diluent). A serial 2-fold dilution of Aβ40 from 100 pmol/ml to 0 pmol/L was prepared for the assay.
After incubation with urea, all samples were further diluted by addition of 5 times standard diluent from the Kit. This was done by adding 240 μL Standard Diluent to 60 μL sample/urea mixture, which was then mixed well. 100 μL of each diluted sample was pipetted into designated wells of the ELISA plate in duplicates. The plate was then covered and incubated overnight at 4° C. The following day, the ELISA kit was brought to room temperature before use. The incubated plate was washed 5 times with the 20× washing solution diluted in Milli Q water. 100 μL HRP-conjugate was applied to each well, and the plate was covered and incubates at 4° C. for 1 hr. The wash was repeated again for 5 times. 100 μL 3,3′,5,5′-Tetramethylbenzidine (TMB) solution was applied to each well and the plate was covered and incubated in the dark at room temperature for 30 minutes. […]

P-gp (MDR1) = test: MDCK-MDR1 assay (permeability/efflux); type: in vitro ADME; settings: dog, Papp BA/Papp AB, 60-minute incubation, Pgp substrate when ≧2
Description: The permeability of the test compounds was assessed in MDCK-MDR1 cells that were cultured to confluency (4-6 days) in a 96 transwell plate. Test compounds were diluted with the transport buffer (HBSS+1% BSA) to a concentration of 0.5 μM and applied to the apical or basolateral side of the cell monolayer. Permeation of the test compounds from A to B direction or B to A direction was determined in triplicate over a 60-minute incubation time at 37° C. and 5% CO2 with a relative humidity of 95%. Test compounds were quantified by LC-MS/MS analysis based on the peaks area ratios of analyte/IS in both the receiver and donor wells of the transwell plate.
The apparent permeability coefficient Papp (cm/s) was calculated using the equation: Papp=(dCr/dt)×Vr/(A×C0)
Where dCr/dt is the cumulative concentration of compound in the receiver chamber as a function of time (μM/s); Vr is the solution volume in the receiver chamber (0.05 mL on the apical side; 0.25 mL on the basolateral side); A is the surface area for the transport, i.e. 0.0804 cm^2 for the area of the monolayer; CO is the initial concentration in the donor chamber (μM).
Compounds are classified Pgp substrates when efflux ratio (Papp BA/Papp AB) is ≧2.

Row | efflux ratio at 60 min, 0.5 μM (P-gp (MDR1)) | SMILES | Aβ40 reduction (Aβ40; brain, 10 mg/kg p.o.) | Aβ40 reduction (Aβ40; brain, 30 mg/kg p.o.) | Aβ40 reduction (Aβ40; plasma, 10 mg/kg p.o.) | Aβ40 reduction (Aβ40; plasma, 30 mg/kg p.o.)
1 | 1.22 | COc1cnc(C(=O)Nc2ccc(F)c([C@@]3(C(F)F)N=C(N)CCC3(F)F)c2)cn1 [Compound 3, (S)—N-(3-(6-amino-2-(difluoromethyl)-3,3-difluoro-2,3,4,5-tetrahydropyridin-2-yl)-4-fluorophenyl)-5-methoxypyrazine-2-carboxamide] | 24% | 38% | 39% | 42%
2 | 0.99 | COc1ccc(C(=O)Nc2ccc(F)c([C@@]3(C(F)F)N=C(N)CCC3(F)F)c2)nc1 [Compound 5, (S)—N-(3-(6-amino-2-(difluoromethyl)-3,3-difluoro-2,3,4,5-tetrahydropyridin-2-yl)-4-fluorophenyl)-5-methoxypicolinamide] | 5% | 36% | 40% | 49%
